Measurements reported in patent publication US20180064691A1, “Antibacterial compositions” (WOCKHARDT LIMITED, priority 2016, published 2018).

Experiments:
Experiment in all cases: quantitative drug diffusion assay (zone of inhibition, CLSI)
Format in all cases: cell-based
[1] = tested on: E. coli M-138; set-up: key to CLSI susceptibility interpretation: (R): Resistant; (I): Intermediate; (S): Sensitive (Interpretation as per CLSI recommendations, 2010)
Source text: (§1) Antibacterial activity of cefepime combination with tazobactam against various bacterial strains, including those bacteria that are known to product one or more beta-lactamase, was investigated in quantitative drug diffusion assay performed as per CLSI recommendations (Clinical and Laboratory Standards Institute (CLSI), performance Standards for Antimicrobial Susceptibility Testing, 20th Informational Supplement, M 100-S20, Volume 30, No. 1, 2010).
(§2) In a typical study, overnight grown bacterial cultures after appropriate dilution were seed inoculated in the molten, cooled agar media and plates poured. Antibacterial agents containing 6 mm diameter discs were placed on the top of the agar surface. Zone of inhibition based observation was performed after 16 to 18 hours of incubation at 35±2° C. in ambient air. These assays are routinely used in determining possibility of treating a particular infection using given antibacterial agent or a composition. In general, zone inhibition values in the sensitive (S) range indicate that the strain is susceptible to that antibacterial agent or composition. It is generally assumed that the antibacterial agent or the combination under consideration would not be effective in treating the infection, if the zone inhibition values are in the resistant (R) range.

[2] = tested on: E. coli 7MP; set-up: key: (R): Resistant; (I): Intermediate; (S): Sensitive (Interpretation as per CLSI recommendations, 2010); conditions: CLSI recommendations, 2010
Source text: as §1, §2

[3] = tested on: E. coli B-123; set-up: key: (R): Resistant; (I): Intermediate; (S): Sensitive (Interpretation as per CLSI recommendations, 2010); conditions: CLSI recommendations, 2010
Source text: as §1, §2

[4] = tested on: E. coli B-89; set-up: key: (R): Resistant; (I): Intermediate; (S): Sensitive (Interpretation as per CLSI recommendations, 2010); conditions: CLSI recommendations, 2010
Source text: as §1, §2

[5] = tested on: E. coli M50; set-up: key: (R): Resistant; (I): Intermediate; (S): Sensitive (Interpretation as per CLSI recommendations, 2010); conditions: CLSI recommendations, 2010
Source text: as §1, §2

[6] = tested on: E. coli S-112; set-up: key: (R): Resistant; (I): Intermediate; (S): Sensitive (Interpretation as per CLSI recommendations, 2010); conditions: CLSI recommendations, 2010
Source text: as §1, §2

CO/N=C(\C(=O)N[C@@H]1C(=O)N2C(C(=O)[O-])=C(C[N+]3(C)CCCC3)CS[C@H]12)c1csc(N)n1 [Cefepime, cefepime]
Zone of Inhibition ([1]; 6 mm discs, 16 to 18 hours at 35±2° C.): Nil
CLSI susceptibility interpretation ([1]; CLSI recommendations, 2010): (R)
CLSI susceptibility interpretation [2]: (I)
CLSI susceptibility interpretation [3]: (R)
CLSI susceptibility interpretation [4]: (R)
CLSI susceptibility interpretation [5]: (R)
CLSI susceptibility interpretation [6]: (I)
